In brackets after ≈: the same amount, converted by molar mass.
Key:
Format in all cases: functional
[1] = Selectivity ratio of MIC for wild-type Escherichia coli ATCC 25922 to MIC for Escherichia coli BAS849
Escherichia coli [2] = assay: Antibacterial activity against wild-type Escherichia coli ATCC 25922 by CLSI M100-S17 protocol based method
Escherichia coli [3] = assay: Antibacterial activity against Escherichia coli BAS849 by CLSI M100-S17 protocol based method
Escherichia coli [4] = assay: Antibacterial activity against wild-type Escherichia coli ATCC 25922 in presence of human serum albumin by CLSI M100-S17 protocol based method
Escherichia coli [5] = assay: Antibacterial activity against quinolone resistant Escherichia coli SKM18 by CLSI M100-S17 protocol based method
Acinetobacter baumannii = assay: Antibacterial activity against Acinetobacter baumannii ATCC BAA-747 by CLSI M100-S17 protocol based method
Klebsiella pneumoniae = assay: Antibacterial activity against Klebsiella pneumoniae ATCC 35657 by CLSI M100-S17 protocol based method
Escherichia coli [6] = assay: Ratio of MIC in presence to absence of HSA for wild-type Escherichia coli ATCC 25922
[7] = Selectivity ratio of MIC for quinolone resistant Escherichia coli SKM18 to MIC for wild-type Escherichia coli ATCC 25922
Escherichia coli [8] = assay: Antibacterial activity against wild-type Escherichia coli ATCC 25922 infected in iv dosed CD-1 mouse assessed as mouse survival treated for 1 hr followed by reinfection with bacteria measured at 96 hrs post infection; details: ATCC 25922, iv, read-out: PD50
Staphylococcus aureus = assay: Antibacterial activity against multidrug resistant Staphylococcus aureus by broth microdilution assay

Row | Compound | MIC (Escherichia coli [2]) [µg/mL] | MIC (Escherichia coli [3]) [µg/mL] | MIC (Escherichia coli [4]) [µg/mL] | MIC (Escherichia coli [5]) [µg/mL] | MIC (Acinetobacter baumannii) [µg/mL] | Ratio (Escherichia coli [6]) | other results
1 | CCc1c(-c2ccc(N3CC=CC3)cc2)[nH]c(=O)c(C(=O)O)c1O | 0.78 (≈ 2.39 µM) | 0.01 (≈ 0.0306 µM) | 32.2 | > 62.5 | – | – | Selectivity ratio [1]: > 50
2 | CN(C)c1ccc(-c2[nH]c(=O)c(C(=O)O)c(O)c2C2CC2)cc1 | > 62.5 | 1.56 (≈ 4.96 µM) | – | – | – | – | –
3 | CCc1c(-c2ccc(N3C[C@@H]4[C@H](C3)[C@H]4NC)cc2)[nH]c(=O)c(C(=O)O)c1O | 0.39 (≈ 1.06 µM) | 0.049 (≈ 0.133 µM) | 3.1 | 3.1 (≈ 8.39 µM) | 1.6 (≈ 4.33 µM) | 4 - 8 | MIC (Klebsiella pneumoniae): 0.39 µg/mL (≈ 1.06 µM)
4 | CCc1c(-c2ccc(N(C)C)cc2C)[nH]c(=O)c(C(=O)O)c1O | > 12.5 | 6.3 (≈ 19.9 µM) | – | – | – | – | –
5 | CCc1c(-c2ccc(N3CCC(C4(N(C)C)CC4)C3)cc2)[nH]c(=O)c(C(=O)O)c1O (stereo not given) | 6.3 (≈ 15.3 µM) | 0.04 (≈ 0.0972 µM) | – | > 12.5 | > 25 | 4 - 8 | MIC (Klebsiella pneumoniae): 12.5 µg/mL (≈ 30.4 µM)
6 | CCc1c(-c2ccc(N3CCC(CNC)C3)cc2)[nH]c(=O)c(C(=O)O)c1O (stereo not given) | 1.6 (≈ 4.31 µM) | 0.39 (≈ 1.05 µM) | 6.3 | 7.8 (≈ 21 µM) | 12.5 (≈ 33.7 µM) | 4 - 8 | MIC (Klebsiella pneumoniae): 6.3 µg/mL (≈ 17 µM)
7 | CCn1cc(C(=O)O)c(=O)cc1-c1ccc(N(C)C)cc1 | 6.3 (≈ 22 µM) | 0.39 (≈ 1.36 µM) | – | > 62.5 | – | – | –
8 | CCc1c(-c2ccc(N3CCNCC3)cc2)[nH]c(=O)c(C(=O)O)c1O | 6.3 (≈ 18.3 µM) | 3.1 (≈ 9.03 µM) | 15.6 | 62.5 (≈ 182 µM) | – | <3 | –
9 | CCOC(=O)c1c(O)c(CC)c(-c2ccc(N(C)C)cc2)[nH]c1=O | > 12.5 | > 12.5 | – | – | – | – | –
10 | CCc1c(-c2ccc(N(C)C)c(OC)c2)[nH]c(=O)c(C(=O)O)c1O | > 12.5 | 6.3 (≈ 19 µM) | – | – | – | – | –
11 | CCc1c(-c2ccc(N3CC4CC4(N)C3)cc2)[nH]c(=O)c(C(=O)O)c1O (stereo not given) | 1.6 (≈ 4.5 µM) | 0.04 (≈ 0.113 µM) | > 12.5 | 6.3 (≈ 17.7 µM) | 6.3 (≈ 17.7 µM) | – | MIC (Klebsiella pneumoniae): 3.1 µg/mL (≈ 8.72 µM)
12 | CN(C)c1ccc(-c2[nH]c(=O)c(C(=O)O)c(O)c2Cc2ccccc2)cc1 | > 12.5 | > 12.5 | – | – | – | – | –
13 | CCc1c(-c2ccc(N3C[C@@H]4[C@H](C3)[C@H]4N(C)C)cc2)[nH]c(=O)c(C(=O)O)c1O | 6.3 (≈ 16.4 µM) | 0.25 (≈ 0.652 µM) | > 12.5 | 12.5 (≈ 32.6 µM) | > 12.5 | 4 - 8 | –
14 | CCc1cc(C(=O)O)c(=O)n(C)c1-c1ccc(N(C)C)cc1 | > 62.5 | 1.6 (≈ 5.33 µM) | – | > 62.5 | – | – | –
15 | CC(C)c1c(-c2ccc(N(C)C)cc2)[nH]c(=O)c(C(=O)O)c1O | 12.5 (≈ 39.5 µM) | 0.12 (≈ 0.379 µM) | – | > 62.5 | – | – | –
16 | CCc1c(-c2ccc(Cl)cc2)[nH]c(=O)c(C(=O)O)c1O | > 12.5 | 1.6 (≈ 5.45 µM) | – | – | – | – | –
17 | Cc1c(-c2ccc(N(C)C)cc2)[nH]c(=O)c(C(=O)O)c1O | 31.3 (≈ 109 µM) | 0.39 (≈ 1.35 µM) | – | 3.1 (≈ 10.8 µM) | – | – | –
18 | CCc1c(-c2ccc(N3CCC(C(C)(C)N)C3)cc2)[nH]c(=O)c(C(=O)O)c1O (stereo not given) | 3.1 (≈ 8.04 µM) | 0.78 (≈ 2.02 µM) | 12.5 | 0.78 (≈ 2.02 µM) | > 12.5 | 4 - 8 | MIC (Klebsiella pneumoniae): 6.3 µg/mL (≈ 16.3 µM)
19 | CCc1c(-c2ccc(N3CCC(C)(CN)C3)cc2)[nH]c(=O)c(C(=O)O)c1O (stereo not given) | 1.6 (≈ 4.31 µM) | 0.39 (≈ 1.05 µM) | – | 6.3 (≈ 17 µM) | – | 4 - 8 | –
20 | CCc1c(-c2ccc(N3CCC(N4CCCC4)C3)cc2)[nH]c(=O)c(C(=O)O)c1O (stereo not given) | 1.6 (≈ 4.03 µM) | 0.19 (≈ 0.478 µM) | 3.1 | 6.3 (≈ 15.9 µM) | 3.1 (≈ 7.8 µM) | <4 | MIC (Klebsiella pneumoniae): 1.6 µg/mL (≈ 4.03 µM); Selectivity ratio [7]: < 4
21 | COc1c(N2C[C@@H]3CCCN[C@@H]3C2)c(F)cc2c(=O)c(C(=O)O)cn(C3CC3)c12 [MOXIFLOXACIN] | – | – | – | – | – | – | ED50 (Escherichia coli [8]): < 3 mg/kg; MIC50 (Staphylococcus aureus): 4 µg/mL (≈ 9.96 µM); MIC90 (Staphylococcus aureus): 32 µg/mL (≈ 79.7 µM)
22 | CCc1c(-c2ccc(N(C)C)c(F)c2)[nH]c(=O)c(C(=O)O)c1O | 7.8 (≈ 24.4 µM) | 0.39 (≈ 1.22 µM) | – | – | – | – | –
